# Measurements from the supplement of paper PMC10307832.
# Experiments:
# Assay in all cases: relative viability (nuclei count vs DMSO), 5 days (fraction); higher = more cells survive
# Vismodegib + Bortezomib = compound: CS(=O)(=O)c1ccc(C(=O)Nc2ccc(Cl)c(-c3ccccn3)c2)c(Cl)c1 [Vismodegib] + CC(C)C[C@H](NC(=O)[C@H](Cc1ccccc1)NC(=O)c1cnccn1)B(O)O [Bortezomib] (partner 0.002 µM)
# Outline: (§1)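 Dosing by pin tool came one day after lung cancer cell lines were seeded in 1536-well plates, using either one drug or a fixed anchor-drug dose plus five library-drug doses (not always all listed) in √10 steps. After 5 days, nuclei were counted on 4× images. Relative viability is treated-well nuclei count divided by vehicle-well nuclei count, and values are medians of duplicate plates.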
# VE-821 + Lapatinib = compound: CS(=O)(=O)c1ccc(-c2cnc(N)c(C(=O)Nc3ccccc3)n2)cc1 [VE-821] + CS(=O)(=O)CCNCc1ccc(-c2ccc3ncnc(Nc4ccc(OCc5cccc(F)c5)c(Cl)c4)c3c2)o1 [Lapatinib] (partner 2 µM)
# Outline: as §1
# VE-821 + Navitoclax = compound: CS(=O)(=O)c1ccc(-c2cnc(N)c(C(=O)Nc3ccccc3)n2)cc1 [VE-821] + CC1(C)CCC(c2ccc(Cl)cc2)=C(CN2CCN(c3ccc(C(=O)NS(=O)(=O)c4ccc(N[C@H](CCN5CCOCC5)CSc5ccccc5)c(S(=O)(=O)C(F)(F)F)c4)cc3)CC2)C1 [Navitoclax] (partner 0.5 µM)
# Outline: as §1
# Vismodegib + Linsitinib = compound: CS(=O)(=O)c1ccc(C(=O)Nc2ccc(Cl)c(-c3ccccn3)c2)c(Cl)c1 [Vismodegib] + C[C@]1(O)C[C@@H](c2nc(-c3ccc4ccc(-c5ccccc5)nc4c3)c3c(N)nccn32)C1 [Linsitinib] (partner 1 µM)
# Outline: as §1
Cell Line,relative viability (Vismodegib + Bortezomib; first compound 0.08 µM),relative viability (Vismodegib + Bortezomib; first compound 0.253 µM),relative viability (Vismodegib + Bortezomib; first compound 0.8 µM),relative viability (Vismodegib + Bortezomib; first compound 2.53 µM),relative viability (Vismodegib + Bortezomib; first compound 8 µM),relative viability (VE-821 + Lapatinib; first compound 0.08 µM),relative viability (VE-821 + Lapatinib; first compound 0.253 µM),relative viability (VE-821 + Lapatinib; first compound 0.8 µM),relative viability (VE-821 + Lapatinib; first compound 2.53 µM),relative viability (VE-821 + Lapatinib; first compound 8 µM),relative viability (VE-821 + Navitoclax; first compound 0.08 µM),relative viability (VE-821 + Navitoclax; first compound 0.253 µM),relative viability (VE-821 + Navitoclax; first compound 0.8 µM),relative viability (VE-821 + Navitoclax; first compound 2.53 µM),relative viability (VE-821 + Navitoclax; first compound 8 µM),relative viability (Vismodegib + Linsitinib; first compound 0.08 µM),relative viability (Vismodegib + Linsitinib; first compound 0.253 µM),relative viability (Vismodegib + Linsitinib; first compound 0.8 µM),relative viability (Vismodegib + Linsitinib; first compound 2.53 µM),relative viability (Vismodegib + Linsitinib; first compound 8 µM)
NCI-H596,0.923,1.09,0.976,1.18,1.05,1.06,0.87,1.12,1.26,1,0.72,1.05,0.987,0.894,0.644,0.976,1.07,1.1,1.01,1.15
201T,1.13,1.07,1.09,1.09,1.09,1.1,0.937,0.966,1.01,0.976,1.23,1.2,1.21,1.32,1.12,0.954,1.09,1,0.978,1.01
HOP-62,0.863,0.657,0.882,0.743,0.637,1.16,1.03,0.958,1.06,0.947,1.22,0.91,1.16,1.17,1.12,0.988,0.873,1.16,0.748,0.979
EBC-1,0.481,0.564,0.567,0.559,0.67,0.241,0.195,0.209,0.216,0.265,0.44,0.412,0.399,0.254,0.221,0.871,0.901,0.981,0.778,0.883
NCI-H1975,0.381,0.396,0.374,0.373,0.398,0.884,0.531,0.856,0.948,0.669,1,1.11,0.899,1.02,0.652,0.87,0.919,0.975,0.908,0.977
NCI-H1755,0.903,0.947,1.05,0.966,1.01,1.09,0.997,0.961,0.981,0.861,1.03,0.992,0.732,0.928,0.83,0.926,0.969,1.02,1,0.999
